The test system of assay [1] is (Na+-K+) ATPase from T. cruzi. More on the design: method as in PMID 16797482. Conditions: cloned and characterized enzyme; cited from earlier work.
For assay [2], the system named is T. cruzi trypomastigotes. As to the kind of experiment: Antiprotozoal activity against T. cruzi (β-galactosidase reporter strain Tulahuen clone C4, in infected Vero cells). The assay is classed as cell-based. As to conditions: Trypanosoma cruzi, 120 h, read-out: IC50 T. cruzi. The procedure:
The evaluation of the antiprotozoal activity against trypanosomes was carried out using the recombinant strain Tulahuen clone C4 of T. cruzi trypomastigotes (ATCC, Manassas, VA, USA). This strain expresses the β-galactosidase enzyme used as a reporter to assess the viability of the trypanosomatid. The parasites were maintained at 37 °C under a 5% CO2 atmosphere in RPMI-1640 culture medium with L-glutamine, 4-(2-Hydroxyethyl)-piperazine-1-ethanesulfonic acid (HEPES) buffer, NaHCO3, 10% FBS, and 0.05% gentamicin (50 mg/mL) as supplements. Vero cells were cultured for 24 h, and one day prior to the experiment, the cells were infected with trypomastigotes. After additional 24 h of infection, bufadienolides were dissolved in DMSO and tested at four different concentrations by duplicate for five days. Benznidazole was used as the positive control. To determine antitrypanosomal activity, 25 µL of chlorophenol-red-β-D-galactopyranoside (Roche Applied Science) (900 µM) were added to each well and allowed to react with the β-galactosidase of the remaining living parasites for 4.5 h. Absorbance was calculated at 570 nm using a microtiter plate reader (Sinergy HT, BioTek Instruments Inc, Winooski, VT, USA).
(§1) All antitrypanosomal and anticancer assays represent independent analysis. The data are presented as the inhibitory concentration (IC50) ± standard error (SE). The statistical analysis for the IC50 values was carried out employing the Data Analysis complement Wizard of Excel 2000 by adjusting the dose-response curve to a sigmoidal model (Microsoft, Seattle, WA, USA).

For assay [3], the system named is Vero cells. In words: Mammalian cytotoxicity, MTT assay. The assay is classed as cell-based, monkey. As to conditions: Primates, 120 h, read-out: IC50 Vero. As to the method: For cytotoxicity assays, Vero cells were obtained from the American Type Culture Collection (ATCC, Manassas, VA, USA) and cultivated in 96-well plates at 37 °C under a 5% CO2 atmosphere, using RPMI-1640 medium (Sigma-Aldrich, Saint Louis, MO, USA) sterilized with 0.05% gentamicin (50 mg/mL) and supplemented with 10% FBS (fetal bovine serum; Gibco, Invitrogen, Carlsbad, CA, USA). Vero cells were allowed to adhere for 24 h prior to incubation for five days with the samples. During the treatment, DMSO was used as negative control, and samples were assayed at four different concentrations. After incubation, MTT (3-(4,5-di-methyl-thiazol-2-yl)-2,5-di-phenyl-tetra-zolium bromide) was added to each well, and absorbance was determined 4 h later at 570 nm using a color plate reader. Cytotoxicity was evaluated colorimetrically by calculating the ability of the remnant living Vero cells to reduce the pale yellow MTT into the black-purple formazan product, as described earlier. All bioassays were performed in duplicate and the IC50 values were determined employing the Data Analysis complement Wizard of Excel 2000 (Microsoft, Seattle, WA, USA).
A general note: Tetrazolium dyes change colour on reduction, which living cells bring about.

In assay [4] the test system is MCF-7. As to the kind of experiment: Anticancer assay (SRB), MCF-7. The assay is classed as cell-based. Conditions: MCF7, human breast cancer line, 48 h, IC50 ± standard error. As to the method:
(§2) MCF-7, NCI-H460, and SF-268 cancer cells lines were obtained from the American Type Culture Collection (ATCC, Manassas, VA, USA) and cultivated in 96-well plates at 37 °C under a 5% CO2 atmosphere using RPMI-1640 medium (Sigma-Aldrich, USA) sterilized with 0.05% gentamicin (50 mg/mL), supplemented with 10% FBS (fetal bovine serum; Gibco, Invitrogen, Carlsbad, CA, USA), and allowed to adhere for 24 h. After incubation, cancer cells were treated with bufadienolides dissolved in DMSO at five different concentrations and analyzed by duplicate for 48 h. RPMI without cells was used as color control and doxorubicin was used as inhibition control. After treatment, cells were fixed with 25% tricholoroacetic acid (TCA) for 60 min, air dried, and stained with sulforhodamine-B (SRB). Washes with acetic acid at 1% were carried out to eliminate excess of SRB. Tris was added to dissolve the bound SRB. The plate was shaken and absorbance was read at 515 nm using a color plate reader.
as §1

Assay [5] relates to NCI-H460. In words: Anticancer assay (SRB), NCI-H460. As to conditions: human lung cancer line, 48 h, IC50 ± standard error. Type of assay: cell-based. The procedure: as §2, §1
Assay [6] concerns SF-268. As to the kind of experiment: Anticancer assay (SRB), SF-268. The assay is classed as cell-based. As to conditions: human central nervous system cancer line, 48 h, IC50 ± standard error. As to the method:
as §2, §1

The subject of assay [7] is T. cruzi trypomastigotes. As to conditions: cited from earlier work.
The subject of assay [8] is liver cancer cells. More on the design: method as in PMID 20839128. As to conditions: concentration at which growth inhibition was induced; cited from earlier work.
The mark [9] stands for this setting: trypomastigotes, five days treatment, IC50 ± standard error.
Where [10] appears, read: epithelial cells from monkey kidney (ATCC), five days incubation, MTT, IC50 ± standard error.

SMILES strings stand for the structures. ≈ marks a conversion by molar mass, not a printed value. Where two headings read alike, the source gives them in different places.

What is called IC50 is the concentration at which inhibition is half-maximal.

As for `C[C@@H]1O[C@@H](O[C@H]2C[C@@H](O)[C@]3(CO)[C@H]4[C@H](O)C[C@]5(C)[C@@H](C6=CC(=O)OC6)CC[C@]5(O)[C@@H]4CC[C@]3(O)C2)[C@H](O)[C@H](O)[C@H]1O` [ouabain], the “inhibition of enzymatic activity of T. cruzi (Na+-K+) ATPase” value in assay [1] is “not inhibited”.
As to `CC(=O)O[C@H]1C[C@]2(O)[C@@H]3CC[C@@H]4C[C@@H](OC(=O)CCCCCCC(=O)NC(CCCNC(=N)N)C(=O)O)CC[C@]4(C)[C@H]3CC[C@]2(C)[C@H]1c1ccc(=O)oc1` (some centres unmarked) [Compound 6, Bufotalin-3-suberoyl-arginine ester], the values for the IC50 in assay [2] and in assay [3] were 4.9 ± 1 µM and 0.34 ± 0.2 µM, respectively.
On the same counts, the results for `CC(=O)O[C@H]1[C@H]2O[C@]23[C@@H]2CC[C@@H]4C[C@@H](OC(=O)CCCCCC(=O)NC(CCCNC(=N)N)C(=O)O)CC[C@]4(C)[C@H]2CC[C@]3(C)[C@H]1c1ccc(=O)oc1` (some centres unmarked) [Compound 8, Cinobufagin-3-pimeloyl-arginine ester] are 14.7 ± 1.8 µM and 0.72 ± 0.31 µM.
For the compound `C[C@]12CC[C@H](OC(=O)CCCCCCC(=O)NC(CCCNC(=N)N)C(=O)O)CC1CCC1C2CC[C@]2(C)[C@@H](c3ccc(=O)oc3)[C@@H](O)C[C@]12O` (stereo partly drawn) [Compound 5, 16β-hydroxy-desacetyl-bufotalin-3-suberoyl-arginine ester], the IC50 was 6.9 ± 0.95 µM in assay [2] and 0.81 ± 0.35 µM in assay [3].
`O=C(Cn1ccnc1[N+](=O)[O-])NCc1ccccc1` [benznidazole, reference compound]: the IC50 in assay [2] (setting [9]) turned out to be 2.73 ± 0.16 µM.
As to `CC12CCC(OC(=O)CCCCC(=O)NC(CCCNC(=N)N)C(=O)O)CC1CCC1C2CCC2(C)C(c3ccc(=O)oc3)C(O)CC12O` (stereo not drawn) [Compound 1, 16β-hydroxy-desacetyl-bufotalin-3-adipoyl-arginine ester], the IC50 was found to be 8 ± 0.75 µM in assay [2] and 1.89 ± 0.63 µM in assay [3].
In the case of `CC(=O)O[C@H]1[C@H]2O[C@]23[C@@H]2CC[C@@H]4C[C@@H](OC(=O)CCCCCCC(=O)NC(CCCNC(=N)N)C(=O)O)CC[C@]4(C)[C@H]2CC[C@]3(C)[C@H]1c1ccc(=O)oc1` (some centres unmarked) [Compound 9, Cinobufagin-3-suberoyl-arginine ester], the results for the IC50 in assay [2] and in assay [3] were 19 ± 5.73 µM and 0.25 ± 0.08 µM, respectively.
In the case of `CC(=O)O[C@H]1[C@H]2O[C@]23[C@@H]2CC[C@@H]4C[C@@H](O)CC[C@]4(C)[C@H]2CC[C@]3(C)[C@H]1c1ccc(=O)oc1` [Compound 10, Cinobufagin], the IC50 stood at 29 ± 2.57 µM in assay [2] (setting [9]); 54.1 ± 4.73 µM in assay [3] (setting [10]); 0.009 ± 1e-05 µM in assay [4]; 0.014 ± 1e-05 µM in assay [5]; 4.68 µM in assay [6].
Turning to `CC(=O)O[C@H]1[C@H]2O[C@]23[C@@H]2CC[C@@H]4C[C@@H](OC(=O)CCCCC(=O)NC(CCCNC(=N)N)C(=O)O)CC[C@]4(C)[C@H]2CC[C@]3(C)[C@H]1c1ccc(=O)oc1` (some centres unmarked) [Compound 7, Cinobufagin-3-adipoyl-arginine ester], the IC50 turned out to be 16.7 ± 2.93 µM in assay [2] and 3.6 ± 1.64 µM in assay [3].
With `C[C@]12CC[C@H](O)C[C@@]1(O)CC[C@@H]1[C@@H]2CC[C@]2(C)[C@@H](c3ccc(=O)oc3)CC[C@]12O` [telocinobufagin], the “IC50 against T. cruzi trypomastigotes” value in assay [7] is recorded as above 200 µg/mL.
As to `C[C@]12CC[C@H]3[C@@H](CC[C@]4(O)C[C@@H](O)CC[C@]34C=O)[C@@]1(O)CC[C@@H]2c1ccc(=O)oc1` [hellebrigenin], the “IC50 against T. cruzi trypomastigotes” value in assay [7] (trypomastigotes, ref Tempone et al. (2008) [13]) is 91.7 µg/mL (≈ 220 µM).
Consider `CC(=O)O[C@H]1C[C@]2(O)[C@@H]3CC[C@@H]4C[C@@H](O)CC[C@]4(C)[C@H]3CC[C@]2(C)[C@H]1c1ccc(=O)oc1` [Compound 2, Bufotalin], for which the IC50 was 19.6 ± 3.38 µM in assay [2] (setting [9]); 46 ± 6.29 µM in assay [3] (setting [10]); 0.094 ± 3e-05 µM in assay [4]; 0.229 ± 8e-05 µM in assay [5]; 20.5 µM in assay [6].
As to `C[C@]12CC[C@H](OC(=O)CCCCCC(=O)NC(CCCNC(=N)N)C(=O)O)CC1CCC1C2CC[C@]2(C)[C@@H](c3ccc(=O)oc3)[C@@H](O)C[C@]12O` (stereo partly drawn) [Compound 3, 16β-hydroxy-desacetyl-bufotalin-3-pimeloyl-arginine ester], the IC50 in assay [2] worked out at 8.7 ± 1.25 µM; in assay [3], 0.24 ± 0.2 µM.
As to `COc1cccc2c1C(=O)c1c(O)c3c(c(O)c1C2=O)C[C@@](O)(C(=O)CO)C[C@@H]3O[C@H]1C[C@H](N)[C@H](O)[C@H](C)O1` [doxorubicin, reference compound], the IC50 came out at 0.23 ± 0.04 µM in assay [3] (setting [10]), 0.076 ± 0.00301 µM in assay [4], 0.059 ± 0.00506 µM in assay [5] and 0.61 ± 0.057 µM in assay [6].
Consider `CC(=O)O[C@H]1C[C@]2(O)[C@@H]3CC[C@@H]4C[C@@H](OC(=O)CCCCCC(=O)NC(CCCNC(=N)N)C(=O)O)CC[C@]4(C)[C@H]3CC[C@]2(C)[C@H]1c1ccc(=O)oc1` (some centres unmarked) [Compound 4, Bufotalin-3-pimeloyl-arginine ester], for which the IC50 in assay [2] was determined as 4.6 ± 1.75 µM; in assay [3] it was 0.17 ± 0.09 µM. Besides, the “growth inhibition against liver cancer cells” value in assay [8] is recorded as 7.24 µM.
